Assay results: PubChem BioAssay (NCI)
Where “and” joins values, the source holds several entries; their conditions need not be identical. Equal entries are not always repeated.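 Five concentrations, 48 hours, 96-well plates. At the GI50, growth is halved. TGI is the concentration that stops growth completely.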

Assays:
Experiment in all cases: inhibition of tumour cell growth, NCI panel, 48 h
MOLT-4 leukemia = system: MOLT-4 leukemia
SK-MEL-2 melanoma = system: SK-MEL-2 melanoma
SF-539 CNS = system: SF-539 CNS
SNB-19 CNS = system: SNB-19 CNS
UACC-62 melanoma = system: UACC-62 melanoma
HL-60(TB) leukemia = system: HL-60(TB) leukemia
OVCAR-8 ovarian = system: OVCAR-8 ovarian
NCI-H522 lung = system: NCI-H522 lung
HOP-92 NSCLC = system: HOP-92 NSCLC
UO-31 renal = system: UO-31 renal

Compound	TGI (MOLT-4 leukemia)	TGI (SK-MEL-2 melanoma) [µM]	TGI (SF-539 CNS)	TGI (SNB-19 CNS)	TGI (UACC-62 melanoma)	TGI (HL-60(TB) leukemia) [µM]	TGI (OVCAR-8 ovarian)	TGI (NCI-H522 lung) [µM]	TGI (HOP-92 NSCLC)	TGI (UO-31 renal)	GI50 (MOLT-4 leukemia) [µM]	GI50 (SK-MEL-2 melanoma) [µM]	GI50 (SF-539 CNS) [µM]	GI50 (SNB-19 CNS) [µM]	GI50 (UACC-62 melanoma) [µM]	GI50 (HL-60(TB) leukemia) [µM]	GI50 (OVCAR-8 ovarian) [µM]	GI50 (NCI-H522 lung) [µM]	GI50 (HOP-92 NSCLC)	GI50 (UO-31 renal)
Cc1nn(C)c(=S)n(C)c1=O	> 100 µM	34.8	21.9 µM	41 µM	> 100 µM	6.47	27.3 µM	0.822	1.42 µM	0.753 µM	–	–	–	–	–	–	–	–	–	–
COc1ccc(-c2nn(-c3cccc(NC(=O)Nc4cccc(C(F)(F)F)c4)c3)cc2-c2ccncc2)cc1Cl	8.38 µM	5.23	6.45 µM	> 100 µM	5.59 µM	6.26	10.4 µM	6.07	3 µM	> 100 µM	1.76	2.37	1.97	3.85	2.02	1.95	1.7	1.6	0.229 µM	1.48 µM
COC(=O)c1ccccc1N=Cc1ccc(N(CCC#N)S(=O)(=O)c2ccccc2)cc1	> 100 µM	> 100	> 100 µM	> 100 µM	> 100 µM	> 100	> 100 µM	> 100	> 100 µM	> 100 µM	–	–	–	–	–	–	–	–	–	–
Clc1ccc(-c2cn(-c3ccccc3)c(-c3ccccc3)n2)c(Cl)c1	> 50 µM	> 50	> 50 µM	> 42.6 µM	> 50 µM	> 50	> 31.5 µM	> 50	> 50 µM	> 50 µM	> 20.5	> 50	2.2	6.98	> 20.2	9.74	3.18	> 24.2	11.7 µM	10.2 µM
COC(=O)C(=O)C(C#N)c1ccc(Cl)c(Cl)c1 (stereo unspecified)	> 100 µM	> 100	> 100 µM	–	> 100 µM	> 100	–	> 100	> 100 µM	> 100 µM	–	–	–	–	–	–	–	–	–	–
COc1ccc(/C=C/C(C(=O)O)C(=O)O)cc1	84.8 µM	> 100	> 100 µM	> 100 µM	> 100 µM	74.7	> 100 µM	> 100	> 100 µM	> 100 µM	–	–	–	–	–	–	–	–	–	–
CC(C)[C@@H](CS(=O)(=O)C(C)C)N1C(=O)[C@@](C)(CC(=O)O)C[C@H](c2cccc(Cl)c2)[C@H]1c1ccc(Cl)cc1	11.1 µM	42.1	35.9 µM	66.5 µM	11.3 µM	46.8	> 100 µM	51.5	36.3 µM	7.14 µM	0.338	17.6	14	14.6	0.333	17.7	13.5	17.8	12.9 µM	0.303 µM
CN(Cc1ccccc1)C1(N(C)Cc2ccccc2)CC1	> 100 µM	> 100	> 100 µM	> 100 µM	> 100 µM	> 100	> 100 µM	> 100	> 100 µM	> 100 µM	–	–	–	–	–	–	–	–	–	–
C=CCNC(=S)OCCCCCCCCCC	34.6 µM	24.8	34 µM	83.9 µM	30.2 µM	53.5	31.2 µM	–	–	24.8 µM	–	–	–	–	–	–	–	–	–	–
COc1ccc(CCC2NCCc3cc(OC)c(OC)cc32)cc1 (stereo unspecified)	> 100 µM	> 100	> 100 µM	> 100 µM	–	–	> 100 µM	> 100	–	> 100 µM	–	–	–	–	–	–	–	–	–	–
CC(=O)OC1=C2C(CC3C4CC=C5CC(OC(C)=O)CCC5(C)C4CCC23C)C2C(=O)N(Cc3ccccc3)C(=O)C2C1 (stereo unspecified)	8.37 µM	–	14.4 µM	> 100 µM	34.3 µM	17.8	> 100 µM	58.7	–	8.39 µM	2.93	–	3.48	9.22	4.42	3.65	6.9	7.29	–	2.56 µM
COc1cccc(C2C(C#N)=C(N)Oc3cc(OC)ccc32)c1 (stereo unspecified)	> 37.4 µM	–	0.0596 µM	> 89.6 µM	> 94.9 µM	0.077	> 100 µM	0.0556	25.2 µM	31.1 µM	0.0598	–	0.0231	0.517	0.0682	0.0263	0.048	< 0.0105	0.0822 µM	0.0572 µM
COC(=O)c1cc2c(cc1Cl)SC(N(N(C)C)S(=O)(=O)c1ccc(Cl)cc1)=NS2(=O)=O	27.5 µM	59	31.5 µM	50.2 µM	35.6 µM	42.6	–	30.2	30.9 µM	> 100 µM	11.8	20.5	15.8	17.3	17	16.4	–	12.4	14.5 µM	25.3 µM
CN1c2ccccc2C(C)(C)C12CC(c1ccc(Cl)c(S(=O)(=O)N3CCCC3)c1)=NO2 (stereo unspecified)	–	> 100	> 100 µM	> 100 µM	–	> 100	> 100 µM	> 100	–	> 100 µM	–	> 100	> 100	> 100	–	> 100	> 100	> 100	–	> 100 µM
Clc1ccc(Nc2nc3ccccc3c3occc23)cc1	–	21.7	17.5 µM	16.2 µM	18.3 µM	> 50	20.9 µM	20.3	13.2 µM	22.6 µM	–	9.53	9.62	8.78	8.1	24.4	9.2	9.83	6.53 µM	7.91 µM
C=C(C(=O)OC)[C@@H]1C[C@@H](O)[C@]2(C)CC/C=C(\C)CCC[C@H](C)[C@H](O)C1O2	46.5 µM	> 100	> 100 µM	> 100 µM	> 100 µM	–	> 100 µM	> 100	45.4 µM	> 100 µM	18.7	48.5	> 100	79.3	40.5	–	> 100	26.1	3.71 µM	52.8 µM
O=C(O/N=C1/CCCC/C1=C\c1ccccc1)c1ccc(Cl)cc1	–	> 100	> 100 µM	> 100 µM	> 100 µM	> 100	> 100 µM	> 100	> 100 µM	> 100 µM	–	–	–	–	–	–	–	–	–	–
CN(C)CCCC(=O)Nc1ccc(Cn2nnc3c2C(=O)c2nnn(Cc4ccc(NC(=O)CCCN(C)C)cc4)c2C3=O)cc1	5.2 µM	4.64	5.6 µM	–	–	5.17	29.3 µM	5.06	5.82 µM	> 100 µM	1.96	2.17	2.34	–	–	1.75	5.25	2.15	2.51 µM	> 100 µM

Compound	TGI (MOLT-4 leukemia)	TGI (SK-MEL-2 melanoma) [µM]	TGI (SF-539 CNS)	TGI (SNB-19 CNS)	TGI (UACC-62 melanoma)	TGI (HL-60(TB) leukemia) [µM]	TGI (OVCAR-8 ovarian)	TGI (NCI-H522 lung) [µM]	TGI (HOP-92 NSCLC)	TGI (UO-31 renal)	GI50 (MOLT-4 leukemia) [µM]	GI50 (SK-MEL-2 melanoma) [µM]	GI50 (SF-539 CNS) [µM]	GI50 (SNB-19 CNS) [µM]	GI50 (UACC-62 melanoma) [µM]	GI50 (HL-60(TB) leukemia) [µM]	GI50 (OVCAR-8 ovarian) [µM]	GI50 (NCI-H522 lung) [µM]	GI50 (HOP-92 NSCLC)	GI50 (UO-31 renal)
Cn1cnc([N+](=O)[O-])c1Sc1nnc(C(F)(F)F)n1C	38.2 µM	48.5	65.7 µM	> 100 µM	33.5 µM	–	67.8 µM	23.9	34.7 µM	> 100 µM	–	–	–	–	–	–	–	–	–	–
O=[N+]([O-])c1ccc2c(c1)S(=O)c1ccccc1-2 (stereo unspecified)	> 100 µM	> 100	> 100 µM	> 100 µM	> 100 µM	> 100	> 100 µM	> 100	> 100 µM	–	–	–	–	–	–	–	–	–	–	–
C=CCC(C)(C(=O)NCCC)C(=O)c1ccccc1O (stereo unspecified)	> 100 µM	> 100	> 100 µM	> 100 µM	> 100 µM	> 100	> 100 µM	> 100	–	> 100 µM	–	–	–	–	–	–	–	–	–	–
CC(C)CC(=O)CC(O)C(Cl)(Cl)Cl (stereo unspecified)	> 100 µM	> 100	–	> 100 µM	> 100 µM	–	> 100 µM	> 100	–	> 100 µM	–	–	–	–	–	–	–	–	–	–
O=c1c2cccnc2ncn1CCCN1CCOCC1	–	–	> 100 µM	> 100 µM	> 100 µM	–	> 100 µM	> 100	> 100 µM	> 100 µM	–	–	–	–	–	–	–	–	–	–
Cc1cccc(N2C(=O)C(=O)C(c3nc4ccccc4s3)C(=O)C2=O)c1C	> 100 µM	> 100	> 100 µM	> 100 µM	> 100 µM	–	> 100 µM	> 100	> 100 µM	> 100 µM	–	–	–	–	–	–	–	–	–	–
OC(C(=Nc1ccccc1)c1ccccc1)c1ccccc1 (stereo unspecified)	55.1 µM	6.47	25.3 µM	31.6 µM	15 µM	56.1	–	18.9	21 µM	39.8 µM	–	–	–	–	–	–	–	–	–	–
COc1ccc(-c2[nH]ncc2-c2cc(OC)c(OC)c(OC)c2)cc1	4.66 µM	0.517	< 0.0128 µM	> 100 µM	22.5 µM	–	> 33.2 µM	< 0.01	0.901 µM	11.2 µM	0.0308	< 0.01	< 0.01	< 0.01	< 0.01	–	< 0.0124	< 0.01	< 0.01 µM	< 0.01 µM
N#CC(=S)Nc1ccc(F)cc1	> 100 µM	> 100	> 100 µM	> 100 µM	> 100 µM	91.3	> 100 µM	–	68.3 µM	–	–	–	–	–	–	–	–	–	–	–
O=[N+]([O-])c1ccc(O)c2ncccc12	> 100 µM and 10.4 µM	19.3	> 100 µM and 20.8 µM	> 100 µM and 32.6 µM	> 100 µM and 11.6 µM	–	> 100 µM and 19.1 µM	–	82.6 µM and 21.3 µM	> 100 µM and 20.8 µM	–	4.06	–	–	–	–	–	–	19.1 µM and 4.22 µM	18.7 µM and 3.93 µM
COc1cc(/C=C/C(=O)c2cc(OC)c(OC)c(OC)c2)cc(OC)c1OC	48.6 µM	–	12.9 µM	27.3 µM	20.4 µM	11.2	> 100 µM	12.1	20.5 µM	12.1 µM	2.8	–	3.21	11	5.93	1.21	3.49	3.09	2.53 µM	2.05 µM
CN(C)CCNC(=O)c1cccc2c1nc(-c1ccccn1)c1ccccc12	–	34	30.4 µM	> 100 µM	31.4 µM	34.8	34.5 µM	–	39.7 µM	22.7 µM	–	–	–	–	–	–	–	–	–	–
C=C1C(=O)O[C@H]2[C@H]1CC/C(COC(=O)C(=O)c1cn(C)c3ccc(OC)cc13)=C\CC[C@@]1(C)O[C@@H]21	16 µM	–	8.94 µM	21.8 µM	7.08 µM	8.89	20.4 µM	9.16	3.17 µM	6.02 µM	3.65	–	4.96	9.07	2.8	3.03	6.76	5.02	1.27 µM	2.42 µM
NC(=S)N/N=C(\C(=O)Nc1ccc(Cl)c(Cl)c1)C1=NN(c2ccccc2)C(c2cccc([N+](=O)[O-])c2)CC1=O (stereo unspecified)	70.9 µM	> 100	50.8 µM	> 100 µM	> 100 µM	> 100	> 100 µM	–	–	> 100 µM	–	–	–	–	–	–	–	–	–	–
CC1=C(c2cc(C(=O)Nc3cccc(C(F)(F)F)c3)nc(NC#N)n2)Sc2ccccc2N1	> 100 µM	> 100	> 100 µM	> 100 µM	> 100 µM	> 100	–	–	> 100 µM	> 100 µM	–	–	–	–	–	–	–	–	–	–
CC(C)(CCC(C)(C)c1ccccc1)c1ccccc1	41.4 µM	31.5	43.6 µM	33.7 µM	41.4 µM	32.5	75.9 µM	29.9	37.9 µM	–	–	–	–	–	–	–	–	–	–	–
CCc1cccc(C(C)CC)c1NC(=O)CC1C(=O)Nc2ccccc2S1=O (stereo unspecified)	69 µM	> 100	46.2 µM	> 100 µM	> 100 µM	> 100	> 100 µM	–	46.3 µM	> 100 µM	–	–	–	–	–	–	–	–	–	–
O=C1CC(c2c[nH]c3ccccc23)C(=O)N1c1ccccc1 (stereo unspecified)	> 100 µM	> 100	> 100 µM	–	> 100 µM	> 100	> 100 µM	–	–	> 100 µM	–	–	–	–	–	–	–	–	–	–
